Measurements reported in publication PMC6458995, “MAP4K4 Inhibition Promotes Survival of Human Stem Cell-Derived Cardiomyocytes and Reduces Infarct Size In Vivo” (Cell Stem Cell, 2019).

Columns and labels:
Test in all cases: Dundee kinase panel
Type in all cases: biochemical
Details in all cases: for remaining activity at 1 µM: read-out: residual activity
[1] = biological target: T1, p38b MAPK (Homo sapiens, UniProt Q15759)
T1 construct: lines 1-140) and Reaction Biology
Protocol: (§1) Compounds were screened at 1 μM. For key hits, pIC50 values were then determined by HTRF as above. […] Stability in mouse and human liver microsomes was determined by Cyprotex.

[2] = biological target: T2, ERK1 (Homo sapiens, UniProt P27361)
T2 construct: lines 1-140) and Reaction Biology
Protocol: as §1

[3] = biological target: T3, MLK3 (Homo sapiens, UniProt Q16584)
T3 construct: lines 1-140) and Reaction Biology
Protocol: as §1

[4] = biological target: T4, PAK2 (Homo sapiens, UniProt Q13177)
T4 construct: lines 1-140) and Reaction Biology
Protocol: as §1

[5] = biological target: T5, EPH-B1 (Homo sapiens, UniProt P54762)
T5 construct: lines 1-140) and Reaction Biology
T5 sequence (P54762 18-984): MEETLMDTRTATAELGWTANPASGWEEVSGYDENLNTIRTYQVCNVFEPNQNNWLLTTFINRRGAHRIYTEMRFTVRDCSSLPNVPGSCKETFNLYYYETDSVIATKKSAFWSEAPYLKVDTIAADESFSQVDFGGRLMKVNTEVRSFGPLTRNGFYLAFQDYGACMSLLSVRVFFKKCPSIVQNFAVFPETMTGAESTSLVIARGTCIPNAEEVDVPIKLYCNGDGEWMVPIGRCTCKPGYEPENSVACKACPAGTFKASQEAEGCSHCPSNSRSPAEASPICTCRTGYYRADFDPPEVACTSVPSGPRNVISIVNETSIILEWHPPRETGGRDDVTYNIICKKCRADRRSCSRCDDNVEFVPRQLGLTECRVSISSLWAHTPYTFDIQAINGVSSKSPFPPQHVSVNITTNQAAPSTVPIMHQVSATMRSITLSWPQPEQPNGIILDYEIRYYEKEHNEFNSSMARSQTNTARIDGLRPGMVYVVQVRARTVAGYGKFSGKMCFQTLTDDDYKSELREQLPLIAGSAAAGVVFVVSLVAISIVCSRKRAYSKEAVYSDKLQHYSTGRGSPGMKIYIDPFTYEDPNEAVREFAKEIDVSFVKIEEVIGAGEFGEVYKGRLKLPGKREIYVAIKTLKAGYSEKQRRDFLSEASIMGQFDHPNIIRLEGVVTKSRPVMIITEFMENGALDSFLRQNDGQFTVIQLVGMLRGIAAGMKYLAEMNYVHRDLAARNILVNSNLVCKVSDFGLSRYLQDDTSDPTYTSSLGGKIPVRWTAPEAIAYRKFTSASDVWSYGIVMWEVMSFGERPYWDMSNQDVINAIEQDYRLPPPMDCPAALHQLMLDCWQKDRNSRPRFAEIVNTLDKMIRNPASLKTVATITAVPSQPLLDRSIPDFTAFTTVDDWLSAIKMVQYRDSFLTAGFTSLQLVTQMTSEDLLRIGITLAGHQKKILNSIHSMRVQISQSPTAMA
Protocol: as §1

[6] = biological target: T6, IKKe (Homo sapiens, UniProt Q14164)
T6 construct: lines 1-140) and Reaction Biology
T6 sequence (Q14164 1-716): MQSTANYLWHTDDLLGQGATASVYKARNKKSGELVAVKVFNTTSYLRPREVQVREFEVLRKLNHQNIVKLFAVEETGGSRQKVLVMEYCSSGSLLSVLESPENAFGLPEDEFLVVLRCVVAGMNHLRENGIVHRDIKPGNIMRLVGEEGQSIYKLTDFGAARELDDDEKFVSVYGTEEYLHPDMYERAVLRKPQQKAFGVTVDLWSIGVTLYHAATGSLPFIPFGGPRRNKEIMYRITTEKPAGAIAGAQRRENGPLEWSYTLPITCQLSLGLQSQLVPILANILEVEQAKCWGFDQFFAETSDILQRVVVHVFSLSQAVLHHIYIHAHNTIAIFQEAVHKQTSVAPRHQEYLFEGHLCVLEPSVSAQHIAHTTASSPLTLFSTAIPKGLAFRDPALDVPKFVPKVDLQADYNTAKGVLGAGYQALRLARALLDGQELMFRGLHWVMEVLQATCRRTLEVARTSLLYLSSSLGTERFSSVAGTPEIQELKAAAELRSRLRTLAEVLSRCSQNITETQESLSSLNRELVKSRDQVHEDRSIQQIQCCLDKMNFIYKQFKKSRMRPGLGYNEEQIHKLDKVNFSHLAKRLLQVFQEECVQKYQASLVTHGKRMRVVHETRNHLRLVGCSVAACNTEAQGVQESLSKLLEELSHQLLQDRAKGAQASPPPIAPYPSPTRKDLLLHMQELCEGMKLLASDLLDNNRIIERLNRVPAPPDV
Protocol: as §1

[7] = biological target: T7, ZAP70 (Homo sapiens, UniProt P43403)
T7 construct: lines 1-140) and Reaction Biology
T7 sequence (P43403 1-619): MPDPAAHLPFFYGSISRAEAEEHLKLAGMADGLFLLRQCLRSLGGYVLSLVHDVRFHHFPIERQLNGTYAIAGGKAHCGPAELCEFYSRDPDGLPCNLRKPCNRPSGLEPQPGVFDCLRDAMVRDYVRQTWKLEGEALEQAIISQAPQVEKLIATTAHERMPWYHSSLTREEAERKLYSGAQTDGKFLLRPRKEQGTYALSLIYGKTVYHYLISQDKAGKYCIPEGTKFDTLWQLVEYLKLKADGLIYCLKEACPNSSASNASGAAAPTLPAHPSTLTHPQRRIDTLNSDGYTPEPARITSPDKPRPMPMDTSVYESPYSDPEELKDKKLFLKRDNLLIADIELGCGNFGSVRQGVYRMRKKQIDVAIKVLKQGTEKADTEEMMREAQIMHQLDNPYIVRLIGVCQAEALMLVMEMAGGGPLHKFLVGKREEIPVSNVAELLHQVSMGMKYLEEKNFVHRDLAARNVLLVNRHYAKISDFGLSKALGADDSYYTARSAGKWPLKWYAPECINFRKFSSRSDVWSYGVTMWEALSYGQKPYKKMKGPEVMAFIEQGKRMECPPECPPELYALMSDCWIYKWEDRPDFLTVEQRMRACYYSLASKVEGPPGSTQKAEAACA
Protocol: as §1

[8] = biological target: T8, JNK3 (Homo sapiens, UniProt P53779)
T8 construct: lines 1-140) and Reaction Biology
Protocol: as §1

T8 sequence (P53779 whole entry): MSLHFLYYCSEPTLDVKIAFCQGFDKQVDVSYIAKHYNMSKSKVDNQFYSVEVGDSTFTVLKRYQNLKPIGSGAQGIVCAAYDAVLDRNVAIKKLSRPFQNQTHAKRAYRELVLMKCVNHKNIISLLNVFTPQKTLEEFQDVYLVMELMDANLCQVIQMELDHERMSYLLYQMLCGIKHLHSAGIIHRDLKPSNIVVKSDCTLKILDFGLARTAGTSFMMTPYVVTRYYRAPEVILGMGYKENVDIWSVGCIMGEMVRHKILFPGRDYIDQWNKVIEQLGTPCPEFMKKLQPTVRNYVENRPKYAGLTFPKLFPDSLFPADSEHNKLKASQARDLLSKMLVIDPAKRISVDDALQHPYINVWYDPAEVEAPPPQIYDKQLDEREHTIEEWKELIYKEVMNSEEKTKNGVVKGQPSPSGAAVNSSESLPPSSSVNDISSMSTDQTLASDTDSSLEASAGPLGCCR
T2 sequence (P27361 whole entry): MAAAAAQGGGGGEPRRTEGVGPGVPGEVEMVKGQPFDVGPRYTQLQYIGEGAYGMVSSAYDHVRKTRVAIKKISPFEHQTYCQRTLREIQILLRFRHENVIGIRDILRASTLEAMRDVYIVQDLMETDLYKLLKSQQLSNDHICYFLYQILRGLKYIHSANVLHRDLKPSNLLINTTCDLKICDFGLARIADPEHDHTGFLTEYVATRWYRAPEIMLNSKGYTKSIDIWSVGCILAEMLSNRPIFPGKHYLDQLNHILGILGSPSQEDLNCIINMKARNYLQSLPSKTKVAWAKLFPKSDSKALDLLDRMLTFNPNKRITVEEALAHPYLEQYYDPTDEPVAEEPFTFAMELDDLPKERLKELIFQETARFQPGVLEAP
T3 sequence (Q16584 whole entry): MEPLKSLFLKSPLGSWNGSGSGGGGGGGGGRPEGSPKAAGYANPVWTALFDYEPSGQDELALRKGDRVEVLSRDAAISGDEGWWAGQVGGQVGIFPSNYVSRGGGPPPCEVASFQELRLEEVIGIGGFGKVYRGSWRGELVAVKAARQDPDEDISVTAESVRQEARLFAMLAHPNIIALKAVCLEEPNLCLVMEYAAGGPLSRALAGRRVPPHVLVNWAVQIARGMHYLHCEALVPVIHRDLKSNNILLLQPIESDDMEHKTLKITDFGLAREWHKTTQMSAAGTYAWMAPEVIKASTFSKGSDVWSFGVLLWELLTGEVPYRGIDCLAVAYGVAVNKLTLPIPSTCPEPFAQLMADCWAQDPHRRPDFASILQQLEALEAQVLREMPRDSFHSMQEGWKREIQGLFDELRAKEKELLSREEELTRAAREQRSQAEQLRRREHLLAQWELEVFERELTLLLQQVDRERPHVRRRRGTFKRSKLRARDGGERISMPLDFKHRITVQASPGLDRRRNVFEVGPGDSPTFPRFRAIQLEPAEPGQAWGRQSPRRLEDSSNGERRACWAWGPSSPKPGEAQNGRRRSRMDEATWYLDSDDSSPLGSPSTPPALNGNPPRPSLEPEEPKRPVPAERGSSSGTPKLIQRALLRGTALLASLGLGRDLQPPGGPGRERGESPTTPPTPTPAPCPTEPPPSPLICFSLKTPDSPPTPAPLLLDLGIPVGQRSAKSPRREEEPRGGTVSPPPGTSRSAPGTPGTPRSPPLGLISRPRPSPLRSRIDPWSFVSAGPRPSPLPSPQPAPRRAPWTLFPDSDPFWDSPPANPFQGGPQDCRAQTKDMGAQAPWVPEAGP
T1 sequence (Q15759 whole entry): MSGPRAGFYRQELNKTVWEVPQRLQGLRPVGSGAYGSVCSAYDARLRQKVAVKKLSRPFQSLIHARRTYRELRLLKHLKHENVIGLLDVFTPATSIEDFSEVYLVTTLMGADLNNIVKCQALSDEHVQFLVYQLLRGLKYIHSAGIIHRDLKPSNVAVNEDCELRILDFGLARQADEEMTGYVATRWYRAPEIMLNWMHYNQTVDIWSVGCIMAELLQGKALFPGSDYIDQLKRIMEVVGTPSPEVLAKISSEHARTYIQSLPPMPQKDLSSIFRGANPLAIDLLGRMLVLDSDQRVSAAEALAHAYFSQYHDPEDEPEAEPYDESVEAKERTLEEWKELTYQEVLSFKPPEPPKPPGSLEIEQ
T4 sequence (Q13177 whole entry): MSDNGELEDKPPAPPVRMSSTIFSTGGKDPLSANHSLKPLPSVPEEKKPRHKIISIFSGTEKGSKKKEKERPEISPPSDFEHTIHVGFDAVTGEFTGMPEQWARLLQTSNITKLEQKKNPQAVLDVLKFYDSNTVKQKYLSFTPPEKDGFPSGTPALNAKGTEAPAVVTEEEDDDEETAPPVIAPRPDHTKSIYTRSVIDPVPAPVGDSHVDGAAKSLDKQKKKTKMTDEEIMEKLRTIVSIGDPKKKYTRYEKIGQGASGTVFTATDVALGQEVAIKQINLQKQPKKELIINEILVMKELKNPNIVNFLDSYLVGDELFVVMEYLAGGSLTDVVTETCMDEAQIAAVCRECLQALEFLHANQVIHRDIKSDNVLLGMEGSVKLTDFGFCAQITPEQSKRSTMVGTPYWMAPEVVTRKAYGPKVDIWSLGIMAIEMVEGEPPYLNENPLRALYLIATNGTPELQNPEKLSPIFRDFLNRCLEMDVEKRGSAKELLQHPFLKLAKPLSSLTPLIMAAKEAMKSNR

| SMILES | remaining activity at 1 µM [1] [%] | remaining activity at 1 µM [2] [%] | remaining activity at 1 µM [3] [%] | remaining activity at 1 µM [4] [%] | remaining activity at 1 µM [5] [%] | remaining activity at 1 µM [6] [%] | remaining activity at 1 µM [7] [%] | remaining activity at 1 µM [8] [%] | residual activity ([1]; 1 μM) [%] | residual activity ([2]; 1 μM) [%] | residual activity ([3]; 1 μM) [%] | residual activity ([4]; 1 μM) [%] | residual activity ([5]; 1 μM) [%] | residual activity ([6]; 1 μM) [%] | residual activity ([7]; 1 μM) [%] | residual activity ([8]; 1 μM) [%] |
| --- | --- | --- | --- | --- | --- | --- | --- | --- | --- | --- | --- | --- | --- | --- | --- | --- |
| COCCOc1ccc(-c2cn(-c3ccccc3)c3nc[nH]c(=O)c23)cc1 [DMX-5804, 5-[4-(2-methoxy-ethoxy)-phenyl]-7-phenyl-3,7-dihydro-pyrrolo[2,3-d]pyrimidin-4-one] | 93 | 107 | 12 | 93 | 108 | 106 | 94 | 127 |  |  |  |  |  |  |  |  |
| Oc1ncnc2c1c(-c1ccccc1)cn2-c1ccccc1 [F1386-0303, 5,7-diphenyl-7H-pyrrolo[2,3-d]pyrimidin-4-ol] | 96 | 124 | 30 | 79 | 86 | 139 | 114 | 92 |  |  |  |  |  |  |  |  |
| Nc1ncc(C(=O)NC2CN(C(=O)C3CC3)C2)c2ccc(-c3cccc(F)c3)nc12 [GNE-495] |  |  |  |  |  |  |  |  | 100 | 143 | 38 | 94 | 99 | 79 | 109 | 73 |
| O=C1Nc2ccc(I)cc2/C1=C/c1cc(Br)c(O)c(Br)c1 [GW5074] | 77 | 87 | 17 | 29 | 94 | 82 | 98 | 65 |  |  |  |  |  |  |  |  |
| O=C1Cc2c([nH]c3ccc(Br)cc23)-c2ccccc2N1 [Kenpaullone] | 95 | 78 | 21 | 96 | 94 | 98 | 59 | 87 |  |  |  |  |  |  |  |  |
